The values that follow come from a melting point compilation (Tetko et al.; mined from patent text by program, amines drawn as free bases though some values may be those of a salt).

One may read the melting point as the temperature of the solid-liquid transition.

`CC(CC(C)(C)c1ccccc1)N=C(O)C(Cl)=C(Cl)C(=O)O` (stereo not given) yielded a melting point of 106 to 109 °C.
To `Nc1ccc2c(c1)C(=O)NC(C(Cl)(Cl)Cl)O2` (stereo not given) belongs 172 to 174 °C.
In turn, `CCOC(=O)n1c(C(=O)c2ccc(F)cc2)c(NC(C)=O)c2ccc(Cl)cc21` yielded a melting point of 196 to 198 °C.
The value for `CCCC(Sc1cc(C(C)(C)C)c(O)c(C(C)(C)C)c1)C(=O)Nc1c(C)cccc1C` (stereo not given) was 137 to 140 °C; that for `CCOC(=O)c1c(CCl)nc2ccc(Cl)cc2c1-c1ccc(Cl)cc1` was 140 to 141 °C.
In the case of `COCCSNS(=O)(=O)c1ccccc1`, the melting point is 119 to 121 °C.
Regarding `COc1ccc(/C=C(\C#N)c2ccc(N)cc2)cc1OC1CCCC1`, the melting point is 82 to 84 °C.
The value for `O=C(NC/C=C/c1ccccc1)c1ccc(OC(F)(F)F)cc1` was 136 °C; that for `N#Cc1cc([N+](=O)[O-])ccc1OC1CCCCC1` was 97 to 98 °C; that for `N#Cc1ccc2c(c1)C(=O)c1cccn1CC2` was 127 to 128 °C.
The value for `CCS(=O)(=O)Nc1cc(Cc2c[nH]cn2)ccc1F` was 122 to 123 °C; that for `O=C(Oc1ccc(Cl)cc1[N+](=O)[O-])c1ccccc1O` was 155 to 160 °C; that for `COC(=O)C(CCBr)Oc1cc([N+](=O)[O-])cc2c1CCCC2` (stereo not given) was 99 to 100 °C.
Regarding `CSc1c(CO)sc2c1CCN(C)CC2c1ccccc1` (stereo not given), the melting point was determined as 146 °C.
`COc1ccc2cc([C@H](C)C(=O)Oc3ccc(OCCO[N+](=O)[O-])cc3)ccc2c1` displayed a melting point of 141 to 142 °C.
The value for `O=S(=O)(c1ccccc1)N1CC2CCC(C1)O2` was 166 to 168 °C; that for `Nc1ccc(S(=O)(=O)c2cc(-c3ccc(F)cc3)nc(N3CCCC3)c2)cc1` was 245 to 246 °C; that for `N#CC1CN1C(=O)c1ccccn1` (stereo not given) was 124 to 127 °C.
In turn, `CN(C)Cc1[nH]c2ccccc2c1Cn1ccnc1` showed a melting point of 153 to 156 °C.
The value for `CC12CCC3c4cc([N+](=O)[O-])c(OCc5ccccc5)cc4CCC3C1CCC2=O` (stereo not given) was 234 to 235 °C; that for `CC(C)S(=O)(=O)c1snc(OC[Si](C)(C)C)c1C#N` was 98 to 99 °C.
The value for `CSC(=N[N+](=O)[O-])NCc1cnc(Cl)s1` was 162 to 165 °C; that for `C=CCCc1nc(N)n2nc(-c3ccco3)nc2n1` was 194 to 196 °C.
The value for `CCOC(=O)C(=O)Nc1cc(OC)ccc1[N+](=O)[O-]` was 158 °C; that for `COc1ccc(Nc2cc(Cl)ccc2[N+](=O)[O-])cc1` was 98 °C; that for `C#CCOc1cc(Oc2ccccc2Cl)ncn1` was 76.2 °C.
`O=C(O)CCC(=O)c1ccc2c(c1)oc1ccccc12`: the melting point fell in the range of 208 to 210 °C.
In turn, `CCON=C(CC)C1=C(O)CC(c2ccc(NC(=O)OC)cc2)CC1=O` (stereo not given) had a melting point of 160 to 161 °C.
The value for `O=C1NC(=O)C2(c3cc(Oc4ccc(O)cc4)c(Cl)cc3F)CCCCC12` (stereo not given) was 117 to 120 °C; that for `COC(=O)Nc1cccc2c1C(=O)c1ccccc1C2=O` was 214 °C.
The value for `CCCCCOc1cccc(N)c1C#N` was 70 to 73 °C.
To `CC(C)C(NS(=O)(=O)c1ccc(Cl)cc1)C(=O)Nc1ccc(CC(=O)O)cc1` (racemic) belongs 228 to 230 °C; to `O=c1[nH]c(=O)n(C2CC(O)C(CF)O2)cc1C=CBr` (stereo not given), 208 °C.
`CN1CCN(Cc2c(O)c(O)c(O)c3c(=O)cc(-c4ccccc4)oc23)CC1` had a melting point of 280 to 282 °C.
The value for `COC(=O)CCCc1cc2nc(Cl)ccc2n1S(=O)(=O)c1cccc(N(C)C)c1` was 96 to 97 °C.
To `Cc1nc(C=Cc2nc3ccccc3c(=O)n2-c2ccccc2Cl)cs1` belongs 219 to 221 °C; to `CN(C)C(=O)C1=NN(c2ccccc2)C(C(N)=O)=NN1c1ccccc1`, 243 to 244 °C; to `Cc1c(C)c2c(c(C)c1N)C(c1ccccc1)CO2` (stereo not given), 94 to 95 °C.
In the case of `CC(C)(C)C(=O)c1c[nH]c2ncc(-c3ccc(N4CCN(CCO)CC4)cc3)nc12`, the melting point lay in the range of 211 to 213 °C.
For `Nc1c(F)c(F)c(F)c2c1c(=O)c(C(=O)O)cn2C1CC1`, the melting point fell in the range of 269 to 271 °C.
The value for `COCc1cc2c(N)cccc2cn1` was 105 °C.
`CCC(CC)(CO)CS(N)(=O)=O` displayed a melting point of 66 to 68 °C.
The value for `O=C(Cn1cccc(O)c1=O)NCCCCCCNC(=O)Cn1cccc(O)c1=O` was 240 to 242 °C; that for `CSCCCn1cc(C2=C(c3cn(C)c4ccccc34)C(=O)NC2=O)c2ccccc21` was 222 to 224 °C.
To `Cn1c(=O)[nH]c2cc(Cl)cc(Cl)c2c1=O` belongs 247 to 250 °C; to `CN1CCN(Cc2ccccc2-c2cc3c(Nc4ccc5[nH]ccc5c4)c(C#N)cnc3s2)CC1`, 226 to 228 °C; to `CN(C)c1nccc(-c2ccc(-c3ccc(N(c4ccccc4)c4ccccc4)cc3)cc2)n1`, 140 to 141 °C.
To `COc1ccc(C(=O)C[N+](=O)[O-])c(O)c1` belongs 138 to 140 °C; to `N#Cc1ccccc1C(C#N)c1ccc(F)cc1` (stereo not given), 87 to 89 °C; to `CC1OC(Oc2ccc(C(=O)c3ccc(C#N)cc3)cc2)C(O)C(O)C1O` (stereo not given), 96 °C.
`COc1cc(CCC(=O)c2c(O)cc(O)c(CCC(C)C)c2O)cc(OC)c1O` returned a melting point of 166 to 167 °C.
The compound `CC(C)CC(=O)Nc1cc(-c2ccnc3c(C(=O)c4cccs4)cnn23)ccc1F` showed a melting point of 192 to 194 °C.
To `CC(=O)Oc1ccc(S(=O)(=O)ON=C2c3ccccc3-c3ccccc32)cc1` belongs 167 to 168 °C; to `OC1(c2cccs2)CCN(CCCc2nnc3n2CCCCC3)CC1`, 162 to 163 °C.
In the case of `COC(=O)c1ccc(Oc2cc3c(cc2C)C(C)(C)CCC3(C)C)cc1`, the melting point lay within 133 to 135 °C.
The value for `CC(=O)NNc1ccc(Cl)c(CN2OCC(C)(C)C2=O)c1` was 178 to 180 °C.
On to `CC(=O)OC(C)c1ccc2cc(OCc3ccccc3)ccc2c1` (stereo not given), for which the melting point fell in the range of 97 to 98 °C.
As to `c1ccc(-c2cc3ccc4ccccc4n3n2)cc1`, the melting point is 85 to 86 °C.
The value for `COC(=O)C(C)NC(=O)Cc1cc(C)c(C(=O)c2ccc(Cl)cc2)n1C` (stereo not given) was 163 to 165 °C; that for `Cc1ccc(C(=O)Nc2cccc(C(F)(F)F)c2)cc1-c1ccc2cnncc2c1` was 270 to 272 °C.
The value for `CCOC(=O)c1cnc(Nc2ccccc2OCC)[nH]c1=O` was 220 to 221 °C; that for `CCOC(=O)c1cn(-c2ccc(Cl)cc2)c(-c2ccc(Cl)cc2Cl)n1` was 143 to 144 °C; that for `CCOC(=O)c1c(C)cc2c(c1C)c(=O)n(-c1ccccc1C(F)(F)F)c(=O)n2CCN1CCCCC1` was 144 to 145 °C.
The value for `CCS(=O)(=O)N[C@@H]1CCCC[C@H]1OCC(=O)O` (relative stereo) was 120 to 122 °C; that for `COc1ccc(CNc2cc(Cl)c(N=CN(C)C)c(Cl)c2)cc1F` was 138 to 140 °C; that for `CSc1sc(C(=O)N(C)C2CCCCC2)c2c1-c1oncc1C(C)(C)C2` was 150 to 153 °C.
With `COc1cc2ccn3c(=O)c(C(=O)O)cnc3c2cc1OC`, the melting point was 298 to 301 °C.
`CCCCC(C)C(O)C=Cc1ccc(OCc2ccccc2)c(OCc2ccccc2)c1` (stereo not given): the melting point is 77 to 78 °C.
The value for `Nc1c(Cl)cc(C(O)CNCCC#CCOCCc2ccccc2)cc1Cl` (stereo not given) was 62.5 to 63 °C.
The value for `Cc1ccc(N2C(=O)c3cc([N+](=O)[O-])cc([N+](=O)[O-])c3C2=O)cc1` was 182 to 183 °C; that for `CC1(C)OC(=S)Nc2ccc(-c3ccc(F)c(F)c3)cc21` was 209 to 211 °C; that for `O=C(O)Cc1ccc2ccn(C(=O)c3ccccc3)c2c1` was 113 to 115 °C.
`CCCCCCCCCCCCSCCOc1ccc(CCC(=O)O)cc1` gave a melting point of 68 to 69 °C.
Regarding `C=CCNc1nc(C)ccc1C(=O)OC`, the melting point is 140 to 142 °C.
The value for `CC(C)(C)OC(=O)C[C@H](NS(=O)(=O)c1ccc2ccccc2c1)C(=O)O` was 141 °C; that for `COc1ccc(-c2[nH]nc3c2C(=O)c2c(NC(=O)NNC(=O)c4ccccc4OC)cccc2-3)cc1` was 269 °C; that for `Cn1c(C(F)(F)F)ccc(-c2c(F)cc(Cl)c3oc(C(=O)O)cc23)c1=O` was 233 to 235 °C.
The value for `CCOC(=O)COc1cc(C(F)(F)F)c2c(=O)c(-c3ccccc3)coc2c1` was 139 to 140 °C.
The value for `CCCc1nccn1N=Cc1cc(C(C)(C)C)c(O)c(C(C)(C)C)c1` was 160 to 161 °C; that for `CN(C)Cc1ccc(CSCCNC(=C[N+](=O)[O-])NCCSCc2ccc(CN(C)C)o2)o1` was 58 to 62 °C; that for `O=C(O)c1cc(-c2ccc(OCc3ccccc3)cc2)c(=O)n2ccc3ccsc3c12` was 197 to 199 °C.
`CCOC(=O)CC1(Cc2ccncc2)C(=O)N(N2CCOCC2)c2ccccc21` (stereo not given) displayed a melting point of 168 °C.
The value for `CCOC(=O)/C=C(C)/C(F)=C/C=C(C)/C=C/c1c(C)cc(C)c(Cl)c1C` was 100 to 104 °C.
To `O=C1CCCN(C(=O)c2ccc([N+](=O)[O-])cc2)c2cccnc21` belongs 188 to 190 °C; to `CCN(c1ccccc1)C1CC(C)N(C(C)=O)c2ccc(-c3ccccc3)cc21` (stereo not given), 121 °C.
The value for `Cc1cc(CNc2cccc3c2C(=O)N(C2CCC(=O)NC2=O)C3=O)oc1C` (stereo not given) was 127 to 129 °C; that for `COc1ccc(NC(=O)c2ccccc2N)cc1` was 116 to 117 °C.
The compound `CCc1ccc(OCc2ccc(CO)c(CO)c2)cc1-c1ccc(C(O)(CC)CC)cc1C(C)C` had a melting point of 109 °C.
`C=C1CCC2C3CCC4=CC(=O)C=CC4(C)C3CCC12C` (stereo not given) had a melting point of 155 to 157 °C.
The value for `COC(=O)CCNc1c(C#N)cnn1-c1c(Cl)cc(C(F)(F)F)cc1Cl` was 171 to 173 °C.
